Activity calls are given as the source filed them. The calls are words filed in the database; no cut-off is given here.
Legend:
CYP3A4 [1] = target: T1, CYP3A4 (Homo sapiens, UniProt P08684); assay: Inhibition of CYP3A4 at 1 uM; format: ADME
hERG = hERG (Homo sapiens, UniProt Q12809); assay: Inhibition of human ERG expressed in HEK293 cells assessed as whole cell current at 3 uM after 5 mins by automated patch-clamp assay relative to control; format: cell-based; settings: HEK293 cells expressing hERG
hERG, sequence (Q12809 whole entry): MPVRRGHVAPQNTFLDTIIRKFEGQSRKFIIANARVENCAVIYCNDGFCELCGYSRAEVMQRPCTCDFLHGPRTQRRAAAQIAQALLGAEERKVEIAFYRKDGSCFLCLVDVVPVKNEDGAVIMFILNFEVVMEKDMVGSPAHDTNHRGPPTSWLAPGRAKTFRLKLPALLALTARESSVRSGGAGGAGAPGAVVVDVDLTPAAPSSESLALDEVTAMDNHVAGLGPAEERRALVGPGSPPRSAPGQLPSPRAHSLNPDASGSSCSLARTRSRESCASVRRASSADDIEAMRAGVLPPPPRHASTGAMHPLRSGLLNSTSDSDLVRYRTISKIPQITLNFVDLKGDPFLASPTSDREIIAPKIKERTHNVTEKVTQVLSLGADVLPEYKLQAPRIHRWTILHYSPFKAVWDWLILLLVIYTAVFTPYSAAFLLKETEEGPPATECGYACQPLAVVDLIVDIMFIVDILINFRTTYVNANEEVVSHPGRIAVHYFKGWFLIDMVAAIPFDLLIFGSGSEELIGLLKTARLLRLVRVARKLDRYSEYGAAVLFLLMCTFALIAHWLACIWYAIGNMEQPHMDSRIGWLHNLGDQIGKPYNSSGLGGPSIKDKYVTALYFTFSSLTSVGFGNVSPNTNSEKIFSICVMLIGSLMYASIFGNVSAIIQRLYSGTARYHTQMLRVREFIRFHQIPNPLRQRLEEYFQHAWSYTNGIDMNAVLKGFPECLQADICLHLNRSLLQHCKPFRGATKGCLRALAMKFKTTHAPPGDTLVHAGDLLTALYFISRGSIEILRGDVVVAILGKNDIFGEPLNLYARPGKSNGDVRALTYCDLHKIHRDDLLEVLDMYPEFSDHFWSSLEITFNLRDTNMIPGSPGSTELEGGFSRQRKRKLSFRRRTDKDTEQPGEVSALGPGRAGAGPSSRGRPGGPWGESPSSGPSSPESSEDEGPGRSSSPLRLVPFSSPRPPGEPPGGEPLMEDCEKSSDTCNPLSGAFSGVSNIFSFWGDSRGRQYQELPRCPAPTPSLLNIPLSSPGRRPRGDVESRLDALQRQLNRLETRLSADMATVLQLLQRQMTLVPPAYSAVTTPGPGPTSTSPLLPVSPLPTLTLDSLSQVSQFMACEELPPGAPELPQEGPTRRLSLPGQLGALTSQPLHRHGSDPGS

CYP2C19 [2] = target: T2, CYP2C19 (Homo sapiens, UniProt P33261); assay: Inhibition of CYP2C19 at 1 uM; format: ADME
[3] = target: T3, Metabotropic glutamate receptor 2 (Homo sapiens, UniProt Q14416); assay: Positive allosteric modulation of human mGlu2 receptor expressed in CHO cells assessed as glutamate-induced [35S]GTPgammaS binding after 30 mins by liquid scintillation counting relative to glutamate; format: functional, cell-based
Target sequence in this assay (Q14416 19-872 limits assumed): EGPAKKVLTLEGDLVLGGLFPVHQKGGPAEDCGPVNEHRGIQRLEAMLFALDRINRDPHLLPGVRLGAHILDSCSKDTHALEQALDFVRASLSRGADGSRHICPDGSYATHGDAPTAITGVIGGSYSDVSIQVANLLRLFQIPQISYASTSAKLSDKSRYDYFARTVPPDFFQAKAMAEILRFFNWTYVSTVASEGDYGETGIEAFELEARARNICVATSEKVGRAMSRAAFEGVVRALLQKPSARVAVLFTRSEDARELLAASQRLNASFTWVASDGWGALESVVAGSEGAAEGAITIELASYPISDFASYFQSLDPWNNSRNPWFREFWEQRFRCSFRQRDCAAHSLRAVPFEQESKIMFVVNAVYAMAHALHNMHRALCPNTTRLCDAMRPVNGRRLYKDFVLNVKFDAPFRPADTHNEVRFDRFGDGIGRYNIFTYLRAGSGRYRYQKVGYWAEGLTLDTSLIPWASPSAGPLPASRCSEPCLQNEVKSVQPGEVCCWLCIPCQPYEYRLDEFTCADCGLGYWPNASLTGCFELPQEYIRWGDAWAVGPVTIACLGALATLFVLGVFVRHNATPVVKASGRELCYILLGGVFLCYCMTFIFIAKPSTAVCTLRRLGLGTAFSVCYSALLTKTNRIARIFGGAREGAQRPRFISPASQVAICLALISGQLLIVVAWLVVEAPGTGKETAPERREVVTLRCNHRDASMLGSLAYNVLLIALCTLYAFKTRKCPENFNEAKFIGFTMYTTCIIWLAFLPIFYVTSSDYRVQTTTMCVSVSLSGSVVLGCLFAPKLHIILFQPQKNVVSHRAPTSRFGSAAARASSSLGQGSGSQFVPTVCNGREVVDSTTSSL

[4] = Aqueous solubility of the compound in 20% HP-beta-CD buffer at pH 4; format: physicochemical
[5] = target: T3, Metabotropic glutamate receptor 2; assay: Positive allosteric modulation of human mGlu2 receptor expressed in CHO cells assessed as glutamate-induced [35S]GTPgammaS binding after 30 mins by liquid scintillation counting; format: functional, cell-based
Target sequence in this assay (Q14416 whole entry): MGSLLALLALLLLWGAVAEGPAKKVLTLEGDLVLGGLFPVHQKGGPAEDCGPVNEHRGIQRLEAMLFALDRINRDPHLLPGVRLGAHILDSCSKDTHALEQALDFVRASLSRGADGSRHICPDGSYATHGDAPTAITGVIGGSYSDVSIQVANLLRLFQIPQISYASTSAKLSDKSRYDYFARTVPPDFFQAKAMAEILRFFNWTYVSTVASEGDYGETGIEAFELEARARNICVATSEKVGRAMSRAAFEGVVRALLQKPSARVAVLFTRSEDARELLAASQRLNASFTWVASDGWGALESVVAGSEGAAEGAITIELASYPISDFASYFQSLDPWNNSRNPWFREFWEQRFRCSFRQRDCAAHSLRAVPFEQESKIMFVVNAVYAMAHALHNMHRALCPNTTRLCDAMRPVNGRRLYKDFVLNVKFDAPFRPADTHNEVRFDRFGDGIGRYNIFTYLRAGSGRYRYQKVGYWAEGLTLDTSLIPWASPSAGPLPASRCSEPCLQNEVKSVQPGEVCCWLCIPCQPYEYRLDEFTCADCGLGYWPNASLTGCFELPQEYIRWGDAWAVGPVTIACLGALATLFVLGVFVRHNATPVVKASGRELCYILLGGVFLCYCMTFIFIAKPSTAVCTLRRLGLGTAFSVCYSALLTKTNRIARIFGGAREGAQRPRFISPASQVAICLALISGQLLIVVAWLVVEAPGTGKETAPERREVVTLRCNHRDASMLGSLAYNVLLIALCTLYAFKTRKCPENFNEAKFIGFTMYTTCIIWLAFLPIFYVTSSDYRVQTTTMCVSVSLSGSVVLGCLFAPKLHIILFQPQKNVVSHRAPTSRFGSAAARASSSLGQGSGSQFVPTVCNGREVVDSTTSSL

[6] = Drug metabolism in rat liver microsomes at 5 uM after 15 mins; format: ADME, Microsome; settings: read-out: Drug metabolism
CYP1A2 [7] = target: T4, CYP1A2 (Homo sapiens, UniProt P05177); assay: Inhibition of CYP1A2 at 1 uM; format: ADME
T4 sequence (P05177 whole entry): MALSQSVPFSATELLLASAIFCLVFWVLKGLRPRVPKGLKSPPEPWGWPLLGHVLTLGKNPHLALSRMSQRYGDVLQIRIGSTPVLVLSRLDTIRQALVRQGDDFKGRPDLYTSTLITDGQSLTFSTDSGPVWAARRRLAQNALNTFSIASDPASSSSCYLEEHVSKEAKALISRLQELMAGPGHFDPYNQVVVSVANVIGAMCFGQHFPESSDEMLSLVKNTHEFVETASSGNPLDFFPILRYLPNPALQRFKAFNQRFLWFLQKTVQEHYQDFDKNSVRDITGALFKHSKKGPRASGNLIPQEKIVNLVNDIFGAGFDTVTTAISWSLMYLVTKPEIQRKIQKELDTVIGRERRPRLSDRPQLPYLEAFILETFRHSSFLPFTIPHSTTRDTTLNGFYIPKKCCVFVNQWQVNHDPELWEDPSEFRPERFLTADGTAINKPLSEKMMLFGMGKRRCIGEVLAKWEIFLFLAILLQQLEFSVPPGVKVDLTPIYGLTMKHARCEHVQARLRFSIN

CYP2D6 [8] = target: T5, CYP2D6 (Homo sapiens, UniProt P10635); assay: Inhibition of CYP2D6 at 1 uM; format: ADME
[9] = Drug metabolism in human liver microsomes at 5 uM after 15 mins; format: ADME, Microsome; settings: read-out: Drug metabolism
CYP2C9 [10] = target: T6, CYP2C9 (Homo sapiens, UniProt P11712); assay: Inhibition of CYP2C9 at 1 uM; format: ADME
[11] = Ratio of drug level in brain to plasma in Swiss mouse at 10 mg/kg, sc after 1 hr; format: ADME, organism-based; set-up: dose 10 mg/kg, route subcutaneous; settings: read-out: BPR
[12] = Drug level in Swiss mouse brain at 10 mg/kg, sc after 0.5 hrs; format: ADME, organism-based; set-up: dose 10 mg/kg, route subcutaneous; settings: read-out: Drug uptake
[13] = target: Metabotropic glutamate receptor 1 (Homo sapiens) (UniProt Q13255); assay: Agonist activity at human mGluR1 expressed in HEK293 cells by fluorescent Ca2+ assay; format: functional, cell-based
Rattus norvegicus [14] = assay: Effect on sleep-awake cycle in Sprague-Dawley rat EEG model assessed as intermediate state of sleep time at 10 mg/kg, sc by sleep-wake electroencephalogram assay; format: functional, organism-based; set-up: dose 10 mg/kg
[15] = Drug level in Swiss mouse brain at 10 mg/kg, sc after 1 hr; format: ADME, organism-based; set-up: dose 10 mg/kg, route subcutaneous; settings: read-out: Drug uptake
[16] = target: Metabotropic glutamate receptor 1 (Homo sapiens) (UniProt Q13255); assay: Antagonist activity at human mGluR1 expressed in HEK293 cells by fluorescent Ca2+ assay; format: functional, cell-based
Rattus norvegicus [17] = assay: Effect on sleep-awake cycle in Sprague-Dawley rat EEG model assessed as deep sleep time at 10 mg/kg, sc by sleep-wake electroencephalogram assay; format: functional, organism-based; set-up: dose 10 mg/kg
Rattus norvegicus [18] = assay: Effect on sleep-awake cycle in Sprague-Dawley rat EEG model assessed as active awake time at 10 mg/kg, sc by sleep-wake electroencephalogram assay; format: functional, organism-based; set-up: dose 10 mg/kg
Rattus norvegicus [19] = assay: Effect on sleep-awake cycle in Sprague-Dawley rat EEG model assessed as light sleep time at 10 mg/kg, sc by sleep-wake electroencephalogram assay; format: functional, organism-based; set-up: dose 10 mg/kg
[20] = target: Metabotropic glutamate receptor 5 (Homo sapiens) (UniProt P41594); assay: Agonist activity at human mGluR5 expressed in HEK293 cells by fluorescent Ca2+ assay; format: functional, cell-based
[21] = target: T3, Metabotropic glutamate receptor 2; assay: Positive allosteric modulation of human mGlu2 receptor expressed in CHO cells assessed as fold shift in glutamate-induced [35S]GTPgammaS binding at 3 uM after 30 mins by liquid scintillation counting; format: functional, cell-based
Target sequence in this assay (Q14416 19-872 limits assumed): as the sequence (Q14416 19-872 limits assumed) above

[22] = target: Metabotropic glutamate receptor 6 (Rattus norvegicus) (UniProt P35349); assay: Antagonist activity at rat mGluR6 expressed in CHO cells by [35S]GTPgammaS binding assay; format: functional, cell-based
Metabotropic glutamate receptor 6 (Rattus norvegicus), sequence (P35349 whole entry): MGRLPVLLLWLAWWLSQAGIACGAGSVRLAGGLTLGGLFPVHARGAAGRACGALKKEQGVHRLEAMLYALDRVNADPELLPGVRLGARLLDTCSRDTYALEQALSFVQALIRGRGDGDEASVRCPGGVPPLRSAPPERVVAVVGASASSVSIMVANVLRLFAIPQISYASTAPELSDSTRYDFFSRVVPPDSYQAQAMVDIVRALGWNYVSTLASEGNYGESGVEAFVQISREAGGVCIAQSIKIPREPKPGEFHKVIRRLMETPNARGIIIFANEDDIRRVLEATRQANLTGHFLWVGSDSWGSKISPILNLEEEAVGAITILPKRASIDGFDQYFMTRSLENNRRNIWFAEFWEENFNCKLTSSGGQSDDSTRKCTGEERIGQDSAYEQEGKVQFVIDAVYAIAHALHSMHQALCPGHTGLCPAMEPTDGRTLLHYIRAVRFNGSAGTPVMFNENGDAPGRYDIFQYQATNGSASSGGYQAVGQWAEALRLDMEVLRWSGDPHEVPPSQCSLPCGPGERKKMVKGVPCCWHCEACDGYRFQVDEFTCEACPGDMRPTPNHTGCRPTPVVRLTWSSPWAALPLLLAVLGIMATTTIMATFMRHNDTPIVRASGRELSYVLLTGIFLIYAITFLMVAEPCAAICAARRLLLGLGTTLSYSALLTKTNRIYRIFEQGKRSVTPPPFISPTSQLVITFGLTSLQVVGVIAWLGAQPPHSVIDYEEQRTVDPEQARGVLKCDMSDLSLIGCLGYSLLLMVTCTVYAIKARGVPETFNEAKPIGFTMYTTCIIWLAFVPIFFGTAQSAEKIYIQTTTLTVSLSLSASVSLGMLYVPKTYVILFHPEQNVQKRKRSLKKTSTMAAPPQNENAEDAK

Rattus norvegicus [23] = assay: Effect on sleep-awake cycle in Sprague-Dawley rat EEG model assessed as passive wake time at 10 mg/kg, sc by sleep-wake electroencephalogram assay; format: functional, organism-based; set-up: dose 10 mg/kg
[24] = target: Metabotropic glutamate receptor 3 (Homo sapiens) (UniProt Q14832); assay: Agonist activity at human mGluR3 expressed in HEK293 cells by fluorescent Ca2+ assay; format: functional, cell-based
Rattus norvegicus [25] = assay: Inhibition of rapid eye movement sleep in Sprague-Dawley rat EEG model at 10 mg/kg, sc up to 2 hrs by sleep-wake electroencephalogram assay; format: functional, organism-based; set-up: dose 10 mg/kg
[26] = Drug level in Swiss mouse brain at 10 mg/kg, sc after 1.5 hrs; format: ADME, organism-based; set-up: dose 10 mg/kg, route subcutaneous; settings: read-out: Drug uptake
[27] = target: Sodium-dependent noradrenaline transporter (Homo sapiens) (UniProt P23975); assay: Binding affinity to norepinephrine transporter at 10 uM
[28] = target: Metabotropic glutamate receptor 5 (Homo sapiens) (UniProt P41594); assay: Antagonist activity at human mGluR5 expressed in HEK293 cells by fluorescent Ca2+ assay; format: functional, cell-based
[29] = target: Metabotropic glutamate receptor 4 (Homo sapiens) (UniProt Q14833); assay: Antagonist activity at human mGluR4 expressed in L929 cells by [35S]GTPgammaS binding assay; format: functional, cell-based
Metabotropic glutamate receptor 4 (Homo sapiens), sequence (Q14833 whole entry): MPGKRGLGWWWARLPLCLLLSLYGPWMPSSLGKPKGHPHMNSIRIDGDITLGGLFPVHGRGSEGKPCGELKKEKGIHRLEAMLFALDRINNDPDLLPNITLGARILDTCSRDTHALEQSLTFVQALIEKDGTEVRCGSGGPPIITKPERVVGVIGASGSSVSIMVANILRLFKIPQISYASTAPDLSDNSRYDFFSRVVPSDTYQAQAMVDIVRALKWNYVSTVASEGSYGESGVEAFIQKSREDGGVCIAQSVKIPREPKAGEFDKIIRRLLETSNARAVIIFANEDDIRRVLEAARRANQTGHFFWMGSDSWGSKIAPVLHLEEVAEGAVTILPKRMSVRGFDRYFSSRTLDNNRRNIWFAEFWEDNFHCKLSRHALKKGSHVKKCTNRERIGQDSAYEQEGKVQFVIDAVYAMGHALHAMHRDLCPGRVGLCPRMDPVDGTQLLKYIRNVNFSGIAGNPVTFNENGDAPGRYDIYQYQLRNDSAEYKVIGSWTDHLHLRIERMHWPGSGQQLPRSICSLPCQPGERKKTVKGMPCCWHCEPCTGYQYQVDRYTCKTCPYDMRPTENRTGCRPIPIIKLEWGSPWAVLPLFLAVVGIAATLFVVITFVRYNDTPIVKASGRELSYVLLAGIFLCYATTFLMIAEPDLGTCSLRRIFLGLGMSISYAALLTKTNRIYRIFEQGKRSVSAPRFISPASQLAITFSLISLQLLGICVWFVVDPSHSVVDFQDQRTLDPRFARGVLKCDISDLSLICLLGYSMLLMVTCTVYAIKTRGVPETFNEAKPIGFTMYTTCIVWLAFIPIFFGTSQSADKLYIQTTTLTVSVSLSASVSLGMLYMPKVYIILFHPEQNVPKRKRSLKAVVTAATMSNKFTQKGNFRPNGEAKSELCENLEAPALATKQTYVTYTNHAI

[30] = target: Metabotropic glutamate receptor 3 (Homo sapiens) (UniProt Q14832); assay: Antagonist activity at human mGluR3 expressed in HEK293 cells by fluorescent Ca2+ assay; format: functional, cell-based
Rattus norvegicus [31] = assay: Effect on sleep-awake cycle in Sprague-Dawley rat EEG model assessed as increase of REM sleep onset latency at 10 mg/kg, sc by sleep-wake electroencephalogram assay; format: functional, organism-based; set-up: dose 10 mg/kg
[32] = target: Metabotropic glutamate receptor 6 (Rattus norvegicus) (UniProt P35349); assay: Agonist activity at rat mGluR6 expressed in CHO cells by [35S]GTPgammaS binding assay; format: functional, cell-based
[33] = target: Metabotropic glutamate receptor 4 (Homo sapiens) (UniProt Q14833); assay: Agonist activity at human mGluR4 expressed in L929 cells by [35S]GTPgammaS binding assay; format: functional, cell-based
Brain = assay: Ratio of drug level in Swiss mouse brain at 10 mg/kg, sc after 1.5 hrs to drug level in Swiss mouse brain at 10 mg/kg, sc after 1 hr; format: ADME, organism-based; settings: in vivo
[34] = Aqueous solubility of the compound in 20% HP-beta-CD buffer at pH 4 to 7.4; format: physicochemical
CYP3A4 [35] = target: T1, CYP3A4; assay: Inhibition of CYP3A4 at 5 uM; format: ADME
CYP2D6 [36] = target: T5, CYP2D6; assay: Inhibition of CYP2D6 at 5 uM; format: ADME
CYP2C9 [37] = target: T6, CYP2C9; assay: Inhibition of CYP2C9 at 5 uM; format: ADME
CYP1A2 [38] = target: T4, CYP1A2; assay: Inhibition of CYP1A2 at 5 uM; format: ADME
CYP2C19 [39] = target: T2, CYP2C19; assay: Inhibition of CYP2C19 at 5 uM; format: ADME

CC(C)CCn1ccc(-c2ccc(Oc3ccncc3)cc2)c(C#N)c1=O
inhibition at 1 µM (CYP3A4 [1]): 70%
inhibition at 5 min, 3 µM (hERG): 52%
inhibition at 1 µM (CYP2C19 [2]): 97%
Emax [3]: 245%
solubility [4]: ≥ 4000 µg/mL
EC50 [5]: 550 nM
metabolised at 0.25 h, 5 µM [6]: 41%
inhibition at 1 µM (CYP1A2 [7]): 80%
inhibition at 1 µM (CYP2D6 [8]): 84%
metabolised at 0.25 h, 5 µM [9]: 27%
inhibition at 1 µM (CYP2C9 [10]): 82%

CCCCn1ccc(-c2ccc(Oc3ccnc(C)c3)c(F)c2)c(C#N)c1=O
Kp at 1 h [11]: 0.6
concentration at 0.5 h [12]: 1280 ng/g
inhibition at 5 min, 3 µM (hERG): 21%
Emax [3]: 233%
Activity [13]: inactive
Activity (Rattus norvegicus [14]): inactive
concentration at 1 h [15]: 1120 ng/g
Activity [16]: inactive
Activity (Rattus norvegicus [17]): inactive
Activity (Rattus norvegicus [18]): inactive
EC50 [5]: 316 nM
Activity (Rattus norvegicus [19]): inactive
Activity [20]: inactive
fold change (FC) [21]: 11
Activity [22]: inactive
Activity (Rattus norvegicus [23]): inactive
metabolised at 0.25 h, 5 µM [6]: 50%
Activity [24]: inactive
inhibition (Rattus norvegicus [25]): Active
concentration at 1.5 h [26]: 1020 ng/g
Activity [27]: > 50%
Activity [28]: inactive
Activity [29]: inactive
metabolised at 0.25 h, 5 µM [9]: 33%
Activity [30]: inactive
Activity (Rattus norvegicus [31]): Active
Activity [32]: inactive
Activity [33]: inactive

CCCCn1ccc(-c2ccc(Oc3ccnc(C)c3)cc2)c(C#N)c1=O
Kp at 1 h [11]: 0.5
concentration at 0.5 h [12]: 1160 ng/g
inhibition at 5 min, 3 µM (hERG): 53%
Emax [3]: 243%
concentration at 1 h [15]: 994 ng/g
metabolised at 0.25 h, 5 µM [6]: 44%
concentration at 1.5 h [26]: 592 ng/g
Ratio (Brain): 2
metabolised at 0.25 h, 5 µM [9]: 31%

CC(C)CCn1ccc(-c2ccc(Oc3ccccc3)cc2)c(C#N)c1=O
Emax [3]: 188%
EC50 [5]: 42 nM
solubility [34]: > 1 µg/mL
metabolised at 0.25 h, 5 µM [6]: 32%
metabolised at 0.25 h, 5 µM [9]: 36%
inhibition at 5 µM (CYP3A4 [35]): < 50%

Cc1cc(Oc2ccc(-c3ccn(CCC(C)C)c(=O)c3C#N)cc2)ccn1
Emax [3]: 266%
inhibition at 5 µM (CYP2D6 [36]): < 50%
EC50 [5]: 447 nM
metabolised at 0.25 h, 5 µM [6]: 47%
inhibition at 5 µM (CYP2C9 [37]): < 50%
inhibition at 5 µM (CYP1A2 [38]): < 50%
metabolised at 0.25 h, 5 µM [9]: 61%
inhibition at 5 µM (CYP2C19 [39]): < 50%
